Assays:
[1] = tested on: HCT116; experiment: HCT116 IC50 (Table 2, no method described); type: cell-based; conditions: Homo sapiens, HCT-116
[2] = target: T1, HDAC-1 (Homo sapiens, UniProt Q13547); experiment: HDAC Inhibition Assay (purified GST-HDAC protein); type: biochemical
T1 construct: made in house; host or cells: Sf9 or Sf21 insect cells (baculovirus, donor vector pFB-GSTX3)
Excerpt: The baculovirus donor vector pFB-GSTX3 is used to generate a recombinant baculovirus that expresses the HDAC polypeptide. Transfer vectors containing the HDAC coding region are transfected into the DH10Bac cell line (GIBCO) and plated on selective agar plates. Colonies without insertion of the fusion sequence into the viral genome (carried by the bacteria) are blue. Single, white colonies are picked and viral DNAs (bacmid) are isolated from the bacteria by standard plasmid purification procedures. Sf9 cells or Sf21 (American Type Culture Collection) cells are then transfected in […] flasks with the viral DNA using Cellfectin reagent.
Virus-containing media is collected from the transfected cell culture and used for infection to increase its titer. Virus-containing media obtained after two rounds of infection is used for large-scale protein expression. For large-scale protein expression 100 cm^2 round tissue culture plates are seeded with 5×10^7 cells/plate and infected with 1 mL of virus-containing media (at an approximately MOI of 5). After 3 days, the cells are scraped off the plate and centrifuged at 500 rpm for 5 minutes. Cell pellets from 10-20, 100 cm^2 plates, are re-suspended in 50 mL of ice-cold lysis buffer (25 mM tris-HCl, pH 7.5, 2 mM EDTA, 1% NP-40, 1 mM DTT, 1 mM P MSF). The cells are stirred on ice for 15 minutes and then centrifuged at 5,000 rpms for 20 minutes.
The centrifuged cell lysate is loaded onto a 2 mL glutathione-sepharose column (Pharmacia) and is washed thrice with 10 mL of 25 mM tris-HCl, pH 7.5, 2 mM EDTA, 1 mM DTT, 200 mM NaCl. The GST-tagged proteins are then eluted by 10 applications (1 mL each) of 25 mM tris-HCl, pH 7.5, 10 mM reduced-glutathione, 100 mM NaCl, 1 mM DTT, 10% glycerol and stored at −70° C.
HDAC assays with purified GST-HDAC protein are carried out in a final volume of 30 μL containing 15 ng of GST-HDAC protein, 20 mM tris-HCl, pH 7.5, 1 mM MnCl2, 10 mM MgCl2, 1 mM DTT, 3 μg/mL poly(Glu,Tyr) 4:1, 1% DMSO, 2.0 μM ATP (γ-[^33P]-ATP 0.1 μCi). The activity is assayed in the presence or absence of inhibitors. The assay is carried out in 96-well plates at ambient temperature for 15 minutes under conditions described below and terminated by the addition of 20 μL of 125 mM EDTA. Subsequently, 40 μL of the reaction mixture are transferred onto EMMOBILON-PVDF membrane (Millipore) previously soaked for 5 minutes with methanol, rinsed with water, then soaked for 5 minutes with 0.5% H3PO4 and mounted on vacuum manifold with disconnected vacuum source. After spotting all samples, a vacuum is connected and each well-rinsed with 200 μL 0.5% H3PO4. Membranes are removed and washed four times on a shaker with 1.0% H3PO4, once with ethanol. Membranes are counted after drying at ambient temperature, mounting in Packard TopCount 96-well frame, and addition of 10 μL/well of MICROSCINT™ (Packard). IC50 values are calculated by linear regression analysis of the percentage inhibition of each compound in duplicate, at 4 concentrations (usually 0.01, 0.1, 1 and 10 μM).
• Input: 3×4 μL stopped assay on IMMOBILON membrane, not washed • Background (3 wells): assay with H2O instead of enzyme • Positive control (4 wells): 3% DMSO instead of compound • Bath control (1 well): no reaction mix
IC50 values are calculated by logarithmic regression analysis of the percentage inhibition of each compound at 4 concentrations (usually 3- or 10-fold dilution series starting at 10 μM). In each experiment, the actual inhibition by reference compound is used for normalization of IC50 values to the basis of an average value of the reference inhibitor:
Normalized IC50=measured IC50 average ref. IC50/measured ref. IC50

T1 sequence (Q13547 whole entry, species assumed): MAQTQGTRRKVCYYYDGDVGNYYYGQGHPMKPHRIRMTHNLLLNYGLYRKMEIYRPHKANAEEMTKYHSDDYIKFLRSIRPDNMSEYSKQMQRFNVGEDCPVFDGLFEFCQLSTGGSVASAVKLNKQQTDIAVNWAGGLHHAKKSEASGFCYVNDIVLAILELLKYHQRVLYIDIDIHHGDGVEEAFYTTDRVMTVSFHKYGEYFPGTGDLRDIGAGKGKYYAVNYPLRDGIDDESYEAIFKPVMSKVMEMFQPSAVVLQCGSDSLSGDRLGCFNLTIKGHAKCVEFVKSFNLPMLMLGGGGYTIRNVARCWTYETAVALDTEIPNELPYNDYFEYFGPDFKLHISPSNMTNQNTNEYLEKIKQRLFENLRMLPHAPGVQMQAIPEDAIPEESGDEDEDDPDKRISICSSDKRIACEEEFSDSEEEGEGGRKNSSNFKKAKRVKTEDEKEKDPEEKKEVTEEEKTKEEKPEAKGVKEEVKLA

Row | SMILES | IC50 [1] [nM] | IC50 [2] [nM]
1 | CO[C@@H]1C[C@H](Cc2c(C)[nH]c3ccccc23)N(Cc2ccc(/C=C/C(=O)NO)cc2)C1 [Cpd 24, (E)-N-Hydroxy-3-{4-[(2S,4R)-4-methoxy-2-(2-methyl-1H-indol-3-ylmethyl)-pyrrolidin-1-ylmethyl]-phenyl}-acrylamide] | 0.5 | 1.2
2 | O=C(/C=C/c1ccc(CN2CCC[C@@H]2C(=O)N2CCc3ccccc32)cc1)NO [Cpd 17, (E)-3-{4-[(R)-2-(2,3-Dihydro-indole-1-carbonyl)-pyrrolidin-1-ylmethyl]-phenyl}-N-hydroxy-acrylamide] | 950 | 210
3 | O=C(/C=C/c1ccc(CN2CCC[C@@H]2Cc2c[nH]c3ccccc23)c(F)c1)NO [Cpd 9, (E)-3-{3-Fluoro-4-[(R)-2-(1H-indol-3-ylmethyl)-pyrrolidin-1-ylmethyl]-phenyl}-N-hydroxy-acrylamide] | 3 | 1.3
4 | Cc1[nH]c2ccccc2c1C[C@H]1CCCN1Cc1ccc(/C=C/C(=O)NO)cc1F [Cpd 10, (E)-3-{3-Fluoro-4-[(R)-2-(2-methyl-1H-indol-3-ylmethyl)-pyrrolidin-1-ylmethyl]-phenyl}-N-hydroxy-acrylamide] | 0.6 | 0.7
5 | O=C(/C=C/c1ccc(CN2C[C@@H](O)C[C@@H]2Cc2c[nH]c3ccccc23)cc1)NO [Cpd 22, (E)-N-Hydroxy-3-{4-[(2S,4S)-4-hydroxy-2-(1H-indol-3-ylmethyl)-pyrrolidin-1-ylmethyl]-phenyl}-acrylamide] | 4 | 0.45

More lines, now with the values ahead:

Row | IC50 [1] [nM] | IC50 [2] [nM] | SMILES
6 | 3 | 0.65 | O=C(/C=C/c1ccc(CN2CCC[C@@H]2Cc2c[nH]c3ccccc23)cc1)NO [Cpd 2, (E)-N-Hydroxy-3-{4-[(R)-2-(1H-indol-3-ylmethyl)-pyrrolidin-1-ylmethyl]-phenyl}-acrylamide]
7 | 0.4 | 1.2 | CO[C@H]1C[C@H](Cc2c(C)[nH]c3ccccc23)N(Cc2ccc(/C=C/C(=O)NO)cc2)C1 [Cpd 25, (E)-N-Hydroxy-3-{4-[(2S,4S)-4-methoxy-2-(2-methyl-1H-indol-3-ylmethyl)-pyrrolidin-1-ylmethyl]-phenyl}-acrylamide]
8 | 83 | 10 | O=C(/C=C/c1ccc(CN2CCC[C@H]2Cc2c[nH]c3ccccc23)c(F)c1)NO [Cpd 8, (E)-3-{3-Fluoro-4-[(S)-2-(1H-indol-3-ylmethyl)-pyrrolidin-1-ylmethyl]-phenyl}-N-hydroxy-acrylamide]

— patent US20110060009A1, “Hydroxamate-Based Inhibitors of Deacetylases” (NOVARTIS AG, priority 2009, published 2011)
